Laboratory results published in PubChem BioAssay (NCI).
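Five compound concentrations were applied to cells in 96-well plates for 48 hours; endpoints were derived by simple linear interpolation of the resulting dose-response curve. At the TGI there is no net growth.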

Experiments:
Assay in all cases: NCI-60 cell line screen, 48 h
[1] = test system: SNB-75 CNS
[2] = test system: SF-268 CNS
[3] = test system: DU-145 prostate
[4] = test system: HCT-15 colon
[5] = test system: COLO 205 colon
[6] = test system: UACC-257 melanoma
[7] = test system: SK-OV-3 ovarian
[8] = test system: MDA-MB-435
[9] = test system: OVCAR-8 ovarian
[10] = test system: SW-620 colon
[11] = test system: OVCAR-5 ovarian
[12] = test system: A498 renal
[13] = test system: 786-0 renal
[14] = test system: NCI/ADR-RES ovarian
[15] = test system: SK-MEL-28 melanoma
[16] = test system: NCI-H460 lung
[17] = test system: MDA-MB-231 breast
[18] = test system: LOX IMVI melanoma
[19] = test system: SR leukemia
[20] = test system: UACC-62 melanoma

Structure (SMILES)	TGI [1] [µM]	TGI [2] [µM]	TGI [3] [µM]	TGI [4] [µM]	TGI [5] [µM]	TGI [6] [µM]	TGI [7] [µM]	TGI [8] [µM]	TGI [9] [µM]	TGI [10] [µM]	TGI [11] [µM]	TGI [12] [µM]	TGI [13] [µM]	TGI [14] [µM]	TGI [15] [µM]	TGI [16] [µM]	TGI [17] [µM]	TGI [18] [µM]	TGI [19] [µM]	TGI [20] [µM]
Nc1nc(NCC2(CO)CCC2)cc(=O)[nH]1	> 100	> 100	> 100	> 100	> 100	> 100	> 100	> 100	> 100	> 100	> 100	> 100	> 100	> 100	> 100	> 100	> 100	> 100	> 100	> 100
C[N+](C)(C)CC(=O)N/N=C(/CC1OC(=O)c2ccccc21)c1ccccc1O (stereo unspecified)	> 100	> 100	> 100	> 100	> 100	78.9	> 100	97.8	82	> 100	> 100	77.1	86.5	55.4	> 100	70.9	> 100	43.2	34	72.1
CC1(C)CCCOc2cccc(c2)OCCCC(C)(C)C1=O	> 100	> 100	> 100	> 100	> 100	–	> 100	> 100	–	> 100	> 100	> 100	> 100	> 100	> 100	> 100	> 100	> 100	> 100	73.6
CN(C)CC1(Cc2ccccc2)CCC(Cc2ccccc2)C1=O (stereo unspecified)	30	22.6	28.7	13.3	19.4	29.1	36.4	23.8	18.2	11.1	32.8	29.8	4.37	40	26.6	30.6	24.3	15.7	33.3	32.5
CCCCCCCCCCCCCCCC(=O)OC(COC(C)=O)CO[P+](=O)O (stereo unspecified)	94	49.6	> 100	43.8	> 100	> 100	–	> 100	44.4	> 100	38.6	> 100	38.9	80.8	> 100	> 100	50.5	63.9	62	> 100
O=C(O)c1cc(O)c2c(c1)C([C@@H]1c3cccc(O)c3C(=O)c3c(O)cc(C(=O)O)cc31)c1cccc(O)c1C2=O (stereo partly specified)	62.6	96.9	> 100	–	> 100	> 100	> 100	49	> 100	> 100	> 100	69.3	> 100	> 100	> 100	> 100	95.8	31.9	> 100	78.6
CC(=O)c1sc(Nc2ccc(Cl)c(Cl)c2)nc1C	> 100	> 100	> 100	> 100	> 100	> 100	> 100	> 100	> 100	> 100	> 100	> 100	> 100	> 100	> 100	> 100	> 100	> 100	> 100	> 100
Cn1c2ccccc2c2nc3ccccc3c(Cl)c21	> 100	> 100	> 100	> 100	> 100	> 100	> 100	> 100	> 100	> 100	> 100	> 100	> 100	> 100	> 100	> 100	> 100	> 100	> 100	> 100
COc1cc([C@@H]2c3cc4c(cc3[C@@H](c3c(O)cc(O)c5c3O[C@H](c3ccc(O)c(O)c3)[C@H](OC(=O)c3cc(O)c(O)c(O)c3)C5)[C@H]3COC(=O)[C@H]23)OCO4)cc(OC)c1OC	> 100	> 100	> 100	> 100	90	> 100	> 100	7.23	> 100	> 100	> 100	> 100	> 100	> 100	> 100	96.9	> 100	> 100	8.14	> 100
